Source: the supplement of paper PMC10307832

Assays:
Assay in all cases: relative viability (nuclei count vs DMSO), 5 days (fraction); higher = more cells survive
[1] = compound: C[C@]1(O)C[C@@H](c2nc(-c3ccc4ccc(-c5ccccc5)nc4c3)c3c(N)nccn32)C1 [Linsitinib] + CS(=O)(=O)CCNCc1ccc(-c2ccc3ncnc(Nc4ccc(OCc5cccc(F)c5)c(Cl)c4)c3c2)o1 [Lapatinib] (partner 2 µM)
Outline: (§1)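 One day after seeding in 1536-well plates, lung cancer cell lines were dosed by pin tool. Dosing was either single-drug or a fixed anchor-drug dose plus five library-drug doses (not always all listed) in √10 steps. After 5 days, nuclei were stained in one fix-and-stain step and counted on 4× images, and relative viability is the nuclei count of treated wells over that of vehicle wells, given as the median of duplicate plates.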

[2] = compound: Cc1ccc(C(=O)N(CCCN)[C@@H](c2nc3cc(Cl)ccc3c(=O)n2Cc2ccccc2)C(C)C)cc1 [Ispinesib] + CC1(C)CCC(c2ccc(Cl)cc2)=C(CN2CCN(c3ccc(C(=O)NS(=O)(=O)c4ccc(N[C@H](CCN5CCOCC5)CSc5ccccc5)c(S(=O)(=O)C(F)(F)F)c4)cc3)CC2)C1 [Navitoclax] (partner 0.5 µM)
Outline: as §1

[3] = compound: Cc1ccc(C(=O)N(CCCN)[C@@H](c2nc3cc(Cl)ccc3c(=O)n2Cc2ccccc2)C(C)C)cc1 [Ispinesib] + C[C@@H](Oc1cc(-c2cnn(C3CCNCC3)c2)cnc1N)c1c(Cl)ccc(F)c1Cl [Crizotinib] (partner 1 µM)
Outline: as §1

[4] = compound: Cc1ccc(C(=O)N(CCCN)[C@@H](c2nc3cc(Cl)ccc3c(=O)n2Cc2ccccc2)C(C)C)cc1 [Ispinesib] + NC(=O)Nc1cc(-c2cccc(F)c2)sc1C(=O)N[C@H]1CCCNC1 [AZD7762] (partner 0.2 µM)
Outline: as §1

Cell Line	relative viability ([1]; first compound 0.01 µM)	relative viability ([1]; first compound 0.03162 µM)	relative viability ([1]; first compound 0.1 µM)	relative viability ([1]; first compound 0.3162 µM)	relative viability ([1]; first compound 1 µM)	relative viability ([2]; first compound 0.001 µM)	relative viability ([2]; first compound 0.003162 µM)	relative viability ([2]; first compound 0.01 µM)	relative viability ([2]; first compound 0.03162 µM)	relative viability ([2]; first compound 0.1 µM)	relative viability ([3]; first compound 0.001 µM)	relative viability ([3]; first compound 0.003162 µM)	relative viability ([3]; first compound 0.01 µM)	relative viability ([3]; first compound 0.03162 µM)	relative viability ([3]; first compound 0.1 µM)	relative viability ([4]; first compound 0.001 µM)	relative viability ([4]; first compound 0.003162 µM)	relative viability ([4]; first compound 0.01 µM)	relative viability ([4]; first compound 0.03162 µM)	relative viability ([4]; first compound 0.1 µM)
NCI-H1437	0.758	0.787	0.811	0.551	0.715	1.28	1.1	1.43	1.06	0.295	0.993	0.971	1.11	0.902	0.195	1.16	1.15	1.18	1.13	0.296
NCI-H1651	0.761	0.772	0.78	0.667	0.566	1.28	1.13	1.3	0.991	0.213	0.855	0.936	0.99	0.959	0.735	0.531	0.561	0.524	0.441	0.408
NCI-H1666	0.806	0.506	0.477	0.163	0.183	0.987	0.876	0.945	0.527	0.25	0.952	1.12	0.948	0.794	0.293	0.872	0.922	0.898	0.699	0.641
NCI-H1703	1.06		1.52	1.38	1.09	1.2	0.727	0.117	0.0871	0.114	0.811	0.454	0.185	0.0885	0.285	0.16	0.121	0.134	0.0817	0.0822
NCI-H1734	1.05	1.15	1.05	0.714	0.778	0.868	0.952	1.04	0.777	0.549	0.662	0.77	0.893	0.648	0.483	0.709	0.627	0.64	0.448	0.245
NCI-H1755	1.01	1.02	1.04	0.54	0.876	1.01	1.15	1.09	0.917	0.7	0.881	0.622	0.945	0.864	0.461	0.489	0.437	0.433	0.408	0.274
NCI-H1792	0.903	0.847	0.706	0.667	0.649	0.827	0.825	0.594	0.299	0.516	1.26	1.16	0.863	0.736	0.32	0.73	0.742	0.828	0.119	0.157
NCI-H1915	0.984	1.01	0.981	0.608	0.723	0.84	0.804	0.778	0.759	0.566	0.972	0.675	0.926	0.842	0.432	0.728	0.687	0.748	0.451	0.112
